The values that follow come from patent US11685744B2, “CDK inhibitors and their use as pharmaceuticals” (Prelude Therapeutics, Incorporated, priority 2020, dated 2023).

Read-outs that look alike come from different tables or passages of the source.

Assay [1] deals with MCF7 adenocarcinoma cell line. Nature of the assay: Cell proliferation studies in MCF7 cells (ATP-Lite, 10 days). The class given is cell-based. Particulars: read-out: PROLIFERATION_CTG_MCF7 IC50. The essentials: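 Cells were seeded at 100 or 200 per well in DMEM with 10% FBS and dosed in quadruplicate over a 9-point 3-fold dilution. Incubation lasted 10 days at 37 °C, with media exchange and re-dosing on day 5. Viability was read by ATP-Lite luminescence and normalised to background and DMSO, giving IC50.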

The target of assay [2] is CDK6/Cyclin D1 (Homo sapiens (Human), UniProt Q00534). In words: CDK6/CyclinD1 enzymatic activity assay (TR-FRET). The settings on record: ATP 250 μM, read-out: CDK6_D1 IC50. The class given is biochemical. Here is the method:
CDK6/CyclinD1 Enzymatic Activity Assay
The inhibitory activity of compounds was evaluated in vitro using TR-FRET assay with white 384-well low volume microplate (Greiner Bio-One). CDK6/Cyclin D1 catalyzed phosphorylation of peptide in the presence and absence of compounds was measured and used in IC50 determination. Recombinant protein complex CDK6/Cyclin D1, expressed from insect cell, was purchased from ProQinase. Testing compounds were dissolved in DMSO at 0.1 mM and tested in 9-dose IC50 mode. The reaction mixture was prepared by mixing CDK6/Cyclin D1 (1 nM final), ULight-4E-BP1 (100 nM final, Perkinelmer, TRF0128-D), and ATP (250 μM final) in assay buffer (20 mM of HEPES pH 7.4, 1 mM of EGTA, 0.05% BSA, 0.005% Tween 20, and 1 mM TCEP). The compound of interest in DMSO was added to each well in 3-fold serial dilution by dispenser (TECAN D300E). After 20 minutes preincubation at room temperature, 0.1 μL MgCl2 (10 mM final) was added to initiate the reaction. Following a 60 minutes incubation at 37° C., the reaction was stopped by addition of 2 μL of quenching buffer consisting of Lance detection buffer (Perkinelmer CR97-100C), 2 nM LANCE Ultra Europium-anti-P-4E-BP1 (Perkinelmer, TRF0216-D), 10 mM EDTA, and incubate at room temperature for additional 60 minutes in dark. The reaction signal was measured by Envision multimode plate reader (PerkinElmer, 2102-0010). IC50 values were determined by fitting the data to the standard 4 parameters with Hill Slope using GraphPad Prism software.
On the technique in general: TR-FRET usually uses a lanthanide donor and a delayed reading to cut background.

In assay [3] the target is CDK4/Cyclin D1 (Homo sapiens (Human), UniProt P11802). In words: CDK4/CyclinD1 enzymatic activity assay (TR-FRET). The class given is biochemical. The settings on record: ATP 2 mM, read-out: CDK4_D1 IC50. Summed up: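 Insect-cell CDK4/Cyclin D1 (1 nM) with ULight-4E-BP1 (100 nM) and 2 mM ATP in HEPES pH 7.4 buffer, preincubated 20 min with compound (9-dose, 3-fold dilutions); 10 mM MgCl2 started the reaction, run 60 min at 37 °C. EDTA/Eu-anti-phospho-4E-BP1 TR-FRET detection; IC50 from 4-parameter Hill fit.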
Chain of CDK4/Cyclin D1 (P11802 whole entry): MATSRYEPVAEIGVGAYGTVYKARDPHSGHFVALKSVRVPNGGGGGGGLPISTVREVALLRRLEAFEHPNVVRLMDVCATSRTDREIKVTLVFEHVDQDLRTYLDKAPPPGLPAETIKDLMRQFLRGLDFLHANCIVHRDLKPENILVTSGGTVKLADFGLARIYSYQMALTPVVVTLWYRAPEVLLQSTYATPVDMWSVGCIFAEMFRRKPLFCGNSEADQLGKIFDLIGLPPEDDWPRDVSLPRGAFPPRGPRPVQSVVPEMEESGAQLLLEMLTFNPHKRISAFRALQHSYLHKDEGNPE
Chain of CDK4/Cyclin D1 (P24385 whole entry partner): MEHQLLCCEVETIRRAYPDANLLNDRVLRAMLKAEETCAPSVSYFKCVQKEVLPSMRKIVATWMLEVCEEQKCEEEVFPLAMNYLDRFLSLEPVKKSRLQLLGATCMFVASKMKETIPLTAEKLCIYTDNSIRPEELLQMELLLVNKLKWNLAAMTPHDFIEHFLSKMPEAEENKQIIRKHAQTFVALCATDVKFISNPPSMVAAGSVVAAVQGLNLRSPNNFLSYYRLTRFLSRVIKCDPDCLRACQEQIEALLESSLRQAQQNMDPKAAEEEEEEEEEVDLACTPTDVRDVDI

Chain of CDK6/Cyclin D1 (Q00534 whole entry): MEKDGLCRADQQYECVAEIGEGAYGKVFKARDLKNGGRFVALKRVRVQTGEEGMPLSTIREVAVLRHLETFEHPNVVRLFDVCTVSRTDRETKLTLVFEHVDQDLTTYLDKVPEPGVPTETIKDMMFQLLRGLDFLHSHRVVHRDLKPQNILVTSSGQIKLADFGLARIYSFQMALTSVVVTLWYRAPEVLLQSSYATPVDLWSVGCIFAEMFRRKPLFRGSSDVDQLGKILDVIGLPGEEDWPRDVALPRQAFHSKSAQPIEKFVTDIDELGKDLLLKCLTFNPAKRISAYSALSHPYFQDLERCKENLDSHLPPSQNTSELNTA
Chain of CDK6/Cyclin D1 (P24385 whole entry partner): as the sequence (P24385 whole entry partner) above

With “4-(2,6-Dimethyl-3-propan-2-ylthieno[2,3-d]imidazol-5-yl)-N-[5-(4-ethyl-6,6-difluoro-1,4-diazepan-1-yl)pyridin-2-yl]-5-fluoropyrimidin-2-amine [Example 68]”, the IC50 in assay [1] is 0.02 to 0.2 µM; in assay [2], at most 0.02 µM.
With `Cc1c(-c2nc(Nc3ccc(C4CCCN(C)C4)cn3)ncc2F)sc2c1ncn2C(C)C` (single isomer, unassigned) [Example 126, 5-Fluoro-N-[5-[-1-methylpiperidin-3-yl]pyridin-2-yl]-4-(6-methyl-3-propan-2-ylthieno[2,3-d]imidazol-5-yl)pyrimidin-2-amine], the values for the IC50 in assay [3], in assay [1] and in assay [2] were at most 0.02 µM, 0.02 to 0.2 µM and at most 0.02 µM, respectively.
Regarding `CCN1CCN(c2ccc(Nc3ncc(F)c(-c4cc5nccc(C(C)(C)O)c5s4)n3)nc2)CC1` [Example 17, 2-[2-[2-[[5-(4-Ethylpiperazin-1-yl)pyridin-2-yl]amino]-5-fluoropyrimidin-4-yl]thieno[3,2-b]pyridin-7-yl]propan-2-ol], the IC50 in assay [3] was at most 0.02 µM; in assay [1] (Homo sapiens, 240 h), 0.02 to 0.2 µM; in assay [2] it was 0.02 to 0.2 µM.
Consider `CCN1CCN(Cc2ccc(Nc3ncc(F)c(-c4sc5c(C6CCCC6)ccnc5c4Cl)n3)nc2)CC1` [Example 30, 4-(3-Chloro-7-cyclopentylthieno[3,2-b]pyridin-2-yl)-N-[5-[(4-ethylpiperazin-1-yl)methyl]pyridin-2-yl]-5-fluoropyrimidin-2-amine], for which the IC50 in assay [3] is at most 0.02 µM; in assay [1] (Homo sapiens, 240 h), 0.02 to 0.2 µM; in assay [2] it was 0.02 to 0.2 µM.
As for `CCN1CC2(C1)CN(c1ccc(Nc3ncc(F)c(-c4sc5c(nc(C)n5C(C)C)c4C)n3)nn1)C2` [Example 53, 6-(6-Ethyl-2,6-diazaspiro[3.3]heptan-2-yl)-N-(5-fluoro-4-(3-isopropyl-2,6-dimethyl-3H-thieno[2,3-d]imidazol-5-yl)pyrimidin-2-yl)pyridazin-3-amine], the IC50 is at most 0.02 µM in assay [3]; 0.02 to 0.2 µM in assay [1] (Homo sapiens, 240 h); at most 0.02 µM in assay [2].
As to `CCN1C2CC1CN(c1ccc(Nc3ncc(F)c(-c4cc5c(=O)n(C)cc(C(C)C)c5s4)n3)nc1)C2` [Example 58, 2-(2-((5-(6-Ethyl-3,6-diazabicyclo[3.1.1]heptan-3-yl)pyridin-2-yl)amino)-5-fluoropyrimidin-4-yl)-7-isopropyl-5-methylthieno[3,2-c]pyridin-4(5H)-one], the IC50 in assay [3] was at most 0.02 µM; in assay [1] (Homo sapiens, 240 h), 0.02 to 0.2 µM; in assay [2], 0.02 to 0.2 µM.
In the case of `CCN1CCN(C(=O)c2ccc(Nc3ncc(F)c(-c4cc5c(=O)n(C)cc(C(C)C)c5s4)n3)nc2)CC1` [Example 59, 2-(2-((5-(4-Ethylpiperazine-1-carbonyl)pyridin-2-yl)amino)-5-fluoropyrimidin-4-yl)-7-isopropyl-5-methylthieno[3,2-c]pyridin-4(5H)-one], the IC50 was at most 0.02 µM in assay [3]; 0.02 to 0.2 µM in assay [1] (Homo sapiens, 240 h); 0.02 to 0.2 µM in assay [2].
On to `CCN1CC2(C1)CN(c1ccc(Nc3ncc(F)c(-c4sc5c(c4C)c(=O)ncn5C(C)C)n3)nc1)C2` [Example 62, 6-(2-((5-(6-Ethyl-2,6-diazaspiro[3.3]heptan-2-yl)pyridin-2-yl)amino)-5-fluoropyrimidin-4-yl)-1-isopropyl-5-methylthieno[2,3-d]pyrimidin-4(1H)-one], for which the IC50 in assay [3] is at most 0.02 µM; in assay [1] (Homo sapiens, 240 h) it was 0.02 to 0.2 µM; in assay [2], at most 0.02 µM.
For `Cc1c(-c2nc(Nc3ccccn3)ncc2F)sc2c1nc(C)n2C(C)C` [Example 66, 4-(2,6-Dimethyl-3-propan-2-ylthieno[2,3-d]imidazol-5-yl)-5-fluoro-N-pyridin-2-ylpyrimidin-2-amine], the IC50 in assay [3] and in assay [2] was 0.02 to 0.2 µM each time.
Take `Cc1c(-c2nc(Nc3ccc(N4CC5(CCN5C)C4)cn3)ncc2F)sc2c1nc(C)n2C(C)C` [Example 67, 4-(2,6-Dimethyl-3-propan-2-ylthieno[2,3-d]imidazol-5-yl)-5-fluoro-N-[5-(1-methyl-1,6-diazaspiro[3.3]heptan-6-yl)pyridin-2-yl]pyrimidin-2-amine]: the IC50 in assay [3] was at most 0.02 µM; in assay [1] (Homo sapiens, 240 h), 0.02 to 0.2 µM; in assay [2] it was at most 0.02 µM.
Consider `CCN1CC2(C1)CN(C(=O)c1ccc(Nc3ncc(F)c(-c4cc5nc(C)n(C(C)C)c5s4)n3)nc1)C2` [Example 71, (6-Dthyl-2,6-diazaspiro[3.3]heptan-2-yl)-[6-[[5-fluoro-4-(2-methyl-3-propan-2-ylthieno[2,3-d]imidazol-5-yl)pyrimidin-2-yl]amino]pyridin-3-yl]methanone], for which the IC50 was at most 0.02 µM in assay [3], 0.02 to 0.2 µM in assay [1] and 0.02 to 0.2 µM in assay [2].
With `Cc1nc2cc(-c3nc(Nc4ccc(N5CC(N(C)C)C5)cn4)ncc3F)sc2n1C(C)C` [Example 72, N-[5-[3-(Dimethylamino)azetidin-1-yl]pyridin-2-yl]-5-fluoro-4-(2-methyl-3-propan-2-ylthieno[2,3-d]imidazol-5-yl)pyrimidin-2-amine], the IC50 is at most 0.02 µM in assay [3]; 0.02 to 0.2 µM in assay [1] (Homo sapiens, 240 h); at most 0.02 µM in assay [2].
Consider `Cc1c(-c2nc(Nc3ccc(N4CCN(C)CC4=O)cn3)ncc2F)sc2c1nc(C)n2C(C)C` [Example 75, 1-[6-[[4-(2,6-Dimethyl-3-propan-2-ylthieno[2,3-d]imidazol-5-yl)-5-fluoropyrimidin-2-yl]amino]pyridin-3-yl]-4-methylpiperazin-2-one], for which the IC50 in assay [3] is at most 0.02 µM; in assay [1] (Homo sapiens, 240 h) it was at most 0.02 µM; in assay [2], at most 0.02 µM.
For the molecule `Cc1c(-c2nc(Nc3ccc(N4CCN(CC(F)(F)F)CC4)cn3)ncc2F)sc2c(C(C)C)cn(C)c(=O)c12` [Example 80, 2-(5-Fluoro-2-((5-(4-(2,2,2-trifluoroethyl)piperazin-1-yl)pyridin-2-yl)amino)pyrimidin-4-yl)-7-isopropyl-3,5-dimethylthieno[3,2-c]pyridin-4(5H)-one], the IC50 in assay [3] was 0.02 to 0.2 µM; in assay [1] (Homo sapiens, 240 h) it was 0.2 to 2 µM; in assay [2] it was 0.02 to 0.2 µM.
`CCN1CC2CC1CN2c1ccc(Nc2ncc(F)c(-c3cc4c(=O)n(C)cc(C(C)C)c4s3)n2)nc1` (stereo not shown) [Example 81, 2-(2-((5-(5-Ethyl-2,5-diazabicyclo[2.2.1]heptan-2-yl)pyridin-2-yl)amino)-5-fluoropyrimidin-4-yl)-7-isopropyl-5-methylthieno[3,2-c]pyridin-4(5H)-one]: the IC50 is at most 0.02 µM in assay [3]; 0.02 to 0.2 µM in assay [1] (Homo sapiens, 240 h); at most 0.02 µM in assay [2].
Consider `Cc1c(-c2nc(Nc3ccc(N4CC5(C4)CN(C(C)C)C5)cn3)ncc2F)sc2c(C(C)C)cn(C)c(=O)c12` [Example 92, 2-(5-Fluoro-2-((5-(6-isopropyl-2,6-diazaspiro[3.3]heptan-2-yl)pyridin-2-yl)amino)pyrimidin-4-yl)-7-isopropyl-3,5-dimethylthieno[3,2-c]pyridin-4(5H)-one], for which the IC50 is at most 0.02 µM in assay [3]; 0.02 to 0.2 µM in assay [1] (Homo sapiens, 240 h); at most 0.02 µM in assay [2].
For the molecule `Cc1c(-c2nc(Nc3ccc(C4CCNCC4)cn3)ncc2F)sc2c(C(C)C)cn(C)c(=O)c12` [Example 94, 2-(5-Fluoro-2-((5-(piperidin-4-yl)pyridin-2-yl)amino)pyrimidin-4-yl)-7-isopropyl-3,5-dimethylthieno[3,2-c]pyridin-4(5H)-one], the IC50 in assay [3] was at most 0.02 µM; in assay [1] (Homo sapiens, 240 h), 0.02 to 0.2 µM; in assay [2], at most 0.02 µM.
On to `Cc1c(-c2nc(Nc3ccc(C4CN(C)C4)cn3)ncc2F)sc2c1nc(C)n2C(C)C` [Example 108, 5-Fluoro-4-(3-isopropyl-2,6-dimethyl-3H-thieno[2,3-d]imidazol-5-yl)-N-(5-(1-methylazetidin-3-yl)pyridin-2-yl)pyrimidin-2-amine], for which the IC50 in assay [3] was at most 0.02 µM; in assay [1] (Homo sapiens, 240 h) it was 0.02 to 0.2 µM; in assay [2], 0.02 to 0.2 µM.
`CCN1CC2(C1)CN(c1ccc(Nc3ncc(F)c(-c4cc5c(=O)n(C)nc(C6CN(C(=O)OC(C)(C)C)C6)c5s4)n3)nc1)C2` [Example 109, tert-Butyl 3-(2-(2-((5-(6-ethyl-2,6-diazaspiro[3.3]heptan-2-yl)pyridin-2-yl)amino)-5-fluoropyrimidin-4-yl)-5-methyl-4-oxo-4,5-dihydrothieno[2,3-d]pyridazin-7-yl)azetidine-1-carboxylate]: the IC50 was at most 0.02 µM in assay [3]; 0.02 to 0.2 µM in assay [1] (Homo sapiens, 240 h); 0.02 to 0.2 µM in assay [2].
